The test system of test [1] is P. aeruginosa (ATCC#27853). Put plainly: Survival of bacteria under cycled high/low NO gas exposure (FIG. 7). The test is classed as cell-based. To be noted: 160 ppm NO gas 30 minutes then 20 ppm 3.5 hours, cycled every 4 hours for 24 hours; compared to air. The method, then:
(§1) The effectiveness of the intermittent high dose delivery of nitric oxide gas in combating microorganisms was tested and verified. Briefly, the experimental methods were as follows. Inoculums of varying bacteria was prepared to a suspension of 2.5×10^8 cfu/ml, and diluted 1:1000 in sterile normal saline. Three milliliters of the inoculums were used per well in a sterile culture place. Exposure of the inoculums were performed in an exposure chamber, which has been described for example, in Ghafarri, A. et al., “A direct nitric oxide gas delivery system for bacterial and mammalian cell cultures,” Nitric Oxide. 12(3):129-40 (May 2005), which is hereby incorporated by reference as if fully set forth herein. The inoculums were exposed to 160 ppm of NO gas at a flow rate of 2.5 liters per minute for 30 minutes followed by exposure to 20 ppm of NO gas for 3.5 hours. The exposure to high and low concentrations of NO gas was repeatedly cycled every 4 hours for 24 hours. At various times (e.g., 0, 4, 8, and 12 hours), samples were taken and plated to determine the survivability of the bacteria as determined by counting cfu/ml.
(§2) FIGS. 6-9 show the survival of various bacteria used in the experiment with NO gas compared to exposure to air as control.

For test [2], the system named is S. aureus (ATCC#25923). The experiment in a line: Survival of bacteria under cycled high/low NO gas exposure (FIG. 6). The test is classed as cell-based. The following applies: 160 ppm NO gas 30 minutes then 20 ppm 3.5 hours, cycled every 4 hours for 24 hours; compared to air. The method, then:
as §1, §2

The test system of test [3] is P. aeruginosa (clinical strain from Cystic Fibrosis). Put plainly: Survival of bacteria under cycled high/low NO gas exposure (FIG. 8). The test is classed as cell-based. The following applies: 160 ppm NO gas 30 minutes then 20 ppm 3.5 hours, cycled every 4 hours for 24 hours; compared to air. The method, then:
as §1, §2

For test [4], the system named is E. coli. The experiment in a line: Survival of bacteria under cycled high/low NO gas exposure (FIG. 9). The test is classed as cell-based. The following applies: 160 ppm NO gas 30 minutes then 20 ppm 3.5 hours, cycled every 4 hours for 24 hours; compared to air. The method, then:
as §1, §2

Test [5] deals with mycothiol in wild type M. smegmatis. The experiment in a line: Mycothiol level by HPLC after NO gas exposure (FIG. 11). The test is classed as cell-based, Mycobacterium smegmatis. The following applies: 400 ppm NO gas, compared to exposure to air. The method, then:
Further experiments were conducted to assay and measure the mycothiol level using HPLC in wild type M. smegmatis after exposure to 400 ppm NO gas and were compared to mycothiol level after exposure to air.

In test [6] the test system is mycothiol-deficient Mycobacterium smegmatis Mutant MshA. Put plainly: Survival of mycothiol-deficient mutant versus wild type on exposure to NO gas (FIG. 10). The test is classed as cell-based. The following applies: 200 ppm NO gas; wild type counterpart mc^2 155. How it is done:
(§3) Additional studies were performed to test the hypothesis that the effect of NO gas in killing microorganisms is related to thiol function. […] This may be due to Mycobacteria having an exceptional thiol, mycothiol, that maintains the redox balance in the cell and protects the cell from nitrosative and oxidative stress. In order to test this hypothesis, sensitivities to NO gas was compared between mycothiol-deficient Mycobacterium smegmatis Mutant MshA to its wild type counterpart, mc^2 155 by exposing both strains to 200 ppm of NO gas. MshA is an enzyme needed in mycothiol biosynthesis.

In test [7] the test system is Mycobacteria. The experiment in a line: Sensitivity of various microorganisms to NO gas damage. The test is classed as cell-based. To be noted: compared with various other microorganisms. How it is done:
as §3

As to `[N]=O` [NO gas, nitric oxide], in test [1], the “survival of P. aeruginosa ATCC#27853 (cfu/ml)” value was “effective method of killing the bacteria”. Besides, the “survival of S. aureus (cfu/ml)” value in test [2] is recorded as “effective method of killing the bacteria”. Further, the “survival of P. aeruginosa clinical strain from Cystic Fibrosis (cfu/ml)” value in test [3] was “effective method of killing the bacteria”. Besides, the “survival of E. coli (cfu/ml)” value in test [4] is recorded as “effective method of killing the bacteria”. Moreover, in test [5], the “level of mycothiol in the mycobacterium” value is listed as “reduced compared to exposure to air”. In addition, in test [6], the “sensitivity of MshA mutant to NO gas versus wild type” value is reported as “more sensitive” and the “time to kill MshA mutant versus wild type” value is “killed in less time than its wild type counterpart”. Further, in test [7], the “sensitivity of Mycobacteria to NO gas damage” value was “less sensitive”.

Source of the values: US7955294B2, “Intermittent dosing of nitric oxide gas” (Sensormedics Corporation, priority 2004, dated 2011).
